Reference: patent EP3797781A1, “USE OF EC-7072 AND SYNERGIC COMPOSITIONS THEREOF IN TREATMENT OF CHRONIC LYMPHOCYTIC LEUKEMIA” (priority 2019, dated 2021)

Experiments:
[1] = tested on: NK cells (CD3^-CD56^+); assay: NK cell numbers, viability and apoptosis in PBMCs (flow cytometry, DiOC6(3)/PI staining); type: cell-based, human
Protocol: To evaluate absolute cell numbers, an equal volume of PKH26 reference microbeads (Sigma-Aldrich) was added to each sample after staining for immune subset identification. Microbeads (5x10^3) were acquired by flow cytometry and absolute numbers of each immune population within the sample were calculated. Normalized percentage values were calculated considering the control (DMSO)-treated cells as 100%.
(§1) Cell viability and apoptosis were evaluated by double-staining with the mitochondrial inner transmembrane potential (ΔΨm)-sensitive dye DiOC6(3) (3,3'-dihexyloxacarbocyanine iodide; Sigma-Aldrich) and the exclusion dye propidium iodide (PI; Immunostep), allowing identification of apoptotic [DiOC6(3)^low PI^-] and dead [PI^+] cells as per Proc. Natl. Acad. Sci. U.S.A. (2014) 111(8):3020-3025 and Methods Mol. Biol. (2016) 1419:1-16. Briefly, PBMCs were resuspended in culture medium containing 20 nM DiOC6(3) and incubated for 30 minutes at 37 °C. Then, PI (1 µg/mL) was added and cells were further incubated for 10 minutes at room temperature (RT). Cells were analyzed by flow cytometry considering DiOC6(3)^+PI^- cells as viable. In some experiments, apoptosis was evaluated by staining with Annexin V/PI. Thus, PBMCs were incubated in Annexin V binding buffer containing 5 µg/mL Annexin V-FITC (Biolegend) for 15 minutes at RT and PI (1 µg/mL) was subsequently added. Data were normalized to the untreated control as a percentage. Only samples with at least 60% of viable cells (DiOC6(3)^+; Annexin V^-) in the control (DMSO) condition were employed in this study.
The effect of EC-7072 toward healthy immune subsets, T lymphocytes and natural killer (NK) cells, which are chronically exposed to leukemia cells in the peripheral blood of patients with CLL was assessed by: • (i) incubating PBMCs isolated from patients with CLL (n = 10) following treatment with increasing concentrations of EC-7072 (0 - 400 nM) for 24 hours. Numbers of T cells (CD3^+CD56^-) (Figure 2A) and NK cells (CD3^-CD56^+) (Figure 2B) were evaluated by flow cytometry and normalized to their respective control (DMSO) condition for each individual patient to obtain percentage of relative number of T cells and NK cells, respectively; • (ii) incubating PBMCs isolated from patients with CLL (n = 6 - 10) following treatment with increasing concentrations of EC-7072 (0 - 400 nM) for 24 hours. Viability of immune subsets (leukemia cells, T cells and NK cells) was determined by cytofluorometric assessment of DiOC6(3)/PI staining and normalized to their respective control (DMSO) condition for each individual patient to obtain percentage of viable [DiOC6(3)^+] cells (Figures 2C and 2D); • (iii) incubating PBMCs isolated from patients with CLL (n = 11) following treatment with DMSO or EC-7072 (200 nM) for 24 hours. Numbers of CD4^+ cells (Figure 2E) and CD8^+ T cells (Figure 2F) were evaluated by flow cytometry and normalized to their respective control (DMSO) condition for each individual experiment; • (iv) incubating PBMCs isolated from healthy donors (n = 15) following treatment with EC-7072 (200 nM) for 24 hours. […]

[2] = tested on: MEC-1, GRANTA-519, Z-138, JVM-2, CA-46, Ramos, Raji and U266 cell lines; assay: Viability of B-cell malignancy cell lines by DiOC6(3)/PI staining; type: cell-based; conditions: 500 nM, 24 hours; n = 3; Figure 5C
Protocol: as §1, with “Thus, PBMCs were incubated in Annexin V binding buffer containing 5 µg/mL Annexin V-FITC (Biolegend) for 15 minutes at RT and PI (1 µg/mL) was subsequently added. Data were normalized to the untreated control as a percentage. Only samples with at least 60% of viable cells (DiOC6(3)^+; Annexin V^-) in the control (DMSO) condition were employed in this study.” left out
Effectiveness of EC-7072 against different B-cell malignancies was assessed by; • (i) incubating primary fibroblasts from healthy donors (n = 4) and HK-2 cells from healthy human adult kidney (n = 3) following treatment with MTA (200 nM) or EC-7072 (200 nM) for 24 hours. […] Cell viability was assessed by DiOC6(3)/PI staining and normalized to control (DMSO) condition to obtain mean percentage of viable [DiOC6(3)^+] cells (Figure 5C).

For CO[C@@H]([C@@H]1Cc2cc3cc(O[C@H]4C[C@@H](O[C@H]5C[C@@H](O)[C@H](O)[C@@H](C)O5)[C@H](O)[C@@H](C)O4)c(C)c(O)c3c(O)c2C(=O)[C@H]1O[C@H]1C[C@@H](O[C@H]2C[C@@H](O[C@H]3C[C@](C)(O)[C@H](O)[C@@H](C)O3)[C@@H](O)[C@@H](C)O2)[C@H](O)[C@@H](C)O1)[C@@H](O)C(C)=O [EC-7072, mithramycin SK], the “ratio of apoptosis in NK cells relative to NK cell death” value ([1]; 200 nM, 24 hours, PBMCs from healthy donors (n = 4), Figure 2R) was “far lower ratio of apoptosis in NK cells relative to NK cell death than does EC-7073”, the “viability of NK cells, comparison of mithralogs” value ([1]; 200 nM, 24 hours, PBMCs from healthy donors (n = 10), Figure 2O) was “not exhibit toxicity” and the “cell numbers and viability of NK cells” value ([1]; 200 nM, 24 hours, PBMCs from healthy donors (n = 15), compared with PBMCs from patients with CLL) was “comparable effects”. For the same molecule, the NK cell survival ([1]; 200 nM, 24 hours, PBMCs from patients with CLL) was “only slightly altered”, the “toxicity against NK cells compared with fludarabine” value ([1]; EC-7072 200 nM 24 hours vs fludarabine 10 µM 24 hours, PBMCs from patients with CLL (n = 6 - 8), Figure 4F) was “significantly less toxic than fludarabine” and the “toxicity against NK cells compared with leukemia cells” value ([1]; high doses (400 nM), 24 hours, PBMCs from patients with CLL) was “significantly less toxic against NK cells than leukemia cells”. The “surviving cell fraction of tumor cell lines derived from B-cell hematologic malignancies” value [2] was “significantly reduced the surviving cell fraction”.
